Consider 3 molecules from patent publication US20240158368A1, “Pyrrolidine Main Protease Inhibitors as Antiviral Agents” (AbbVie Inc., priority 2022, published 2024).

pEC50: −log10 of the molar value.

Series [1] deals with MERS Mpro (Middle East respiratory syndrome-related coronavirus (isolate United Kingdom/H123990006/2012) (MERS-CoV) (Betacoronavirus England 1), UniProt K9N7C7). The experiment in a line: biochemical.
Series [2] can be described thus: in vitro. Particulars: human, microsomes, pH 7.4.
Series [3] relates to OC43 virus. The experiment in a line: microbe, parasite or virus in culture. Type of series: cell-based. Particulars: Betacoronavirus 1, OC43, Huh-7, read-out: Antiviral OC43 EC50 (μM).
For series [4], the target named is 229E Mpro (Human coronavirus 229E (HCoV-229E), UniProt P0C6X1). In kind it is biochemical.
Series [5] deals with OC43 Mpro (Human coronavirus OC43 (HCoV-OC43), UniProt P0C6X6). Type of series: biochemical.
Series [6] relates to 229E virus. Kind of series: organism not typed. In kind it is cell-based. To be noted: Huh-7, read-out: Antiviral 229E EC50 (μM).
The target in series [7] is SARS-CoV-2 Mpro (Severe acute respiratory syndrome coronavirus 2 (2019-nCoV) (SARS-CoV-2), UniProt P0DTD1). Type of series: biochemical.
Series [8] can be described thus: in vitro. To be noted: rat, microsomes, pH 7.4.
The test system of series [9] is SARS-CoV-2 (strain USA-WA1/2020). The experiment in a line: microbe, parasite or virus in culture. Type of series: cell-based. Particulars: Severe acute respiratory syndrome coronavirus 2; HeLa-ACE2 cells; read-out: Antiviral CoV-2 EC50.
Series [10] can be described thus: in vitro. Particulars: PAMPA. A general note: In PAMPA a lipid-coated filter parts donor from acceptor wells.
For series [11], the target named is SARS-CoV-1 Mpro (Severe acute respiratory syndrome coronavirus (SARS-CoV), UniProt P0C6X7). Type of series: biochemical.

Chain of OC43 Mpro (P0C6X6 3247-3549 limits assumed): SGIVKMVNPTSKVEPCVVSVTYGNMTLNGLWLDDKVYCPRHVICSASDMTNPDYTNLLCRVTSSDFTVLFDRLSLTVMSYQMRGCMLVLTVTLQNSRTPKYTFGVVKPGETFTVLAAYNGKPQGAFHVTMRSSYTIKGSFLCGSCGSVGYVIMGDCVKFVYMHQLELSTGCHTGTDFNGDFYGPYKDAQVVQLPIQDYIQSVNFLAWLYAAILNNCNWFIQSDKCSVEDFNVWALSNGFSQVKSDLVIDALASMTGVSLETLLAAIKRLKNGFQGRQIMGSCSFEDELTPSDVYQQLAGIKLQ
Chain of 229E Mpro (P0C6X1 2966-3267 limits assumed): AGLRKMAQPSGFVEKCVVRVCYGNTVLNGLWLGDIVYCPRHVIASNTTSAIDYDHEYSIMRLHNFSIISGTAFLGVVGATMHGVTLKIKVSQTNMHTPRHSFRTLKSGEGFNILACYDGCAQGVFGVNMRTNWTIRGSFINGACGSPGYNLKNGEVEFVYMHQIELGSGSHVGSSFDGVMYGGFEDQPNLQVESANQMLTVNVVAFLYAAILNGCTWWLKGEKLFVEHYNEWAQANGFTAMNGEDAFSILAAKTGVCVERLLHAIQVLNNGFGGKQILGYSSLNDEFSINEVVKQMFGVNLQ
Chain of MERS Mpro (K9N7C7 3248-3553 limits assumed): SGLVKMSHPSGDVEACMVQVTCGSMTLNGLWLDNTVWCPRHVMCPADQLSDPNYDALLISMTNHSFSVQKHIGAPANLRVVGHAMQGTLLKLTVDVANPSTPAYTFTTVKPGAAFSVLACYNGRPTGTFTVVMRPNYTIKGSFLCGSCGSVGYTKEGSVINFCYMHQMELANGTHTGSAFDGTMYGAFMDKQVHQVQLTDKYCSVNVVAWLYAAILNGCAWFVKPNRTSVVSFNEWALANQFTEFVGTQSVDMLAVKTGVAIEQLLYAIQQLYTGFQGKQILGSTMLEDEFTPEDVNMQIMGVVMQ

On to `Cc1cc(C(=O)N2CCOCC2)c(N2C[C@H](NC(=O)c3cc(=O)[nH]c4c(F)cc(F)cc34)CC2=O)c(C2CC2)c1` [Compound 74], for which the pEC50 – broadly, the negative decadic logarithm of the EC50, by convention in mol/L – is 8.89 in [1]; 8.14 in series [4]; 8.47 in series [5]; 9.23 in series [7]; 7.28 in series [9]; 8.84 in series [11]. The CLint scaled (in general, the capacity of the preparation to metabolise the compound, expressed as a volume cleared per time) in [2] is less than 33.3 mL/min/kg; in series [8], less than 56.7 mL/min/kg. For the same molecule, the EC50 – broadly, the concentration that produces a half-maximal response – in series [3] is 0.429 µM; in [6] it was 0.248 µM. The Papp (as a rule, a coefficient for how fast a substance crosses the barrier) in series [10] worked out at 3.54 ×10⁻⁶ cm/s.

Turning to `COc1cccc2[nH]c(=O)cc(C(=O)N[C@@H]3CCN(c4c(C(=O)N5CCOCC5)cc(C)cc4C4CC4)C3)c12` [Compound 81], the negative logarithm of the EC50 (pEC50) in series [1] was 8.64; in series [4] it was 8.67; in series [5] it was 9.18; in [7], 9.31; in series [9], 7.74; in series [11] it was 8.86. For the same molecule, the CLint scaled was 65 mL/min/kg in series [2] and 227 mL/min/kg in series [8]. The EC50 in series [3] came out at 0.013 µM; in series [6], 0.073 µM. The molecule also displayed an apparent permeability (Papp) in series [10] of 2.81 ×10⁻⁶ cm/s.

Consider `COc1cccc2[nH]c(=O)cc(C(=O)N[C@@H]3CCN(c4c(Cl)cc(C)cc4C(=O)N4CCOCC4)C3)c12` [Compound 85], for which the pEC50 in [1] was 8.81; in series [4], 8.04; in series [5] it was 8.64; in series [7], 8.85; in series [9], 6.56; in series [11], 8.50. In addition, the CLint scaled in series [2] was 103 mL/min/kg; in [8] it was 288 mL/min/kg. Further, the values for the EC50 in [3] and in series [6] were 0.21 µM and 0.382 µM, respectively. In series [10], this molecule had an apparent permeability (Papp) of 3.19 ×10⁻⁶ cm/s.
